IC50, LD40 and selectivity ratio data for 21 compounds are collected here from ChEMBL document CHEMBL1141680, “Identification of ring-fused pyrazolo pyridin-2-ones as novel poly(ADP-ribose)polymerase-1 inhibitors” (Bioorg Med Chem Lett, 2008).

Series [1] has as its target Poly [ADP-ribose] polymerase 1 (Homo sapiens, UniProt P09874).
Description: Inhibition of PARP1 in human HeLa cells by fluid scintillation counting using [adenylated-32P]NAD as substrate
Another series concerns HCT-116. The experiment in a line: Cytotoxicity against human HCT116 cells. The format is cell-based.
For another series, the system named is PARP1. Briefly: Therapeutic index, ratio of LD40 for human HCT116 cells to drug concentration that reduced half the amount of streptozotocin required to inhibit PARP1-mediated 90% human HCT116 cell growth. It is filed as cell-based, HCT-116. The note with it: read-out: TI.

Sequence of Poly [ADP-ribose] polymerase 1 (P09874 whole entry): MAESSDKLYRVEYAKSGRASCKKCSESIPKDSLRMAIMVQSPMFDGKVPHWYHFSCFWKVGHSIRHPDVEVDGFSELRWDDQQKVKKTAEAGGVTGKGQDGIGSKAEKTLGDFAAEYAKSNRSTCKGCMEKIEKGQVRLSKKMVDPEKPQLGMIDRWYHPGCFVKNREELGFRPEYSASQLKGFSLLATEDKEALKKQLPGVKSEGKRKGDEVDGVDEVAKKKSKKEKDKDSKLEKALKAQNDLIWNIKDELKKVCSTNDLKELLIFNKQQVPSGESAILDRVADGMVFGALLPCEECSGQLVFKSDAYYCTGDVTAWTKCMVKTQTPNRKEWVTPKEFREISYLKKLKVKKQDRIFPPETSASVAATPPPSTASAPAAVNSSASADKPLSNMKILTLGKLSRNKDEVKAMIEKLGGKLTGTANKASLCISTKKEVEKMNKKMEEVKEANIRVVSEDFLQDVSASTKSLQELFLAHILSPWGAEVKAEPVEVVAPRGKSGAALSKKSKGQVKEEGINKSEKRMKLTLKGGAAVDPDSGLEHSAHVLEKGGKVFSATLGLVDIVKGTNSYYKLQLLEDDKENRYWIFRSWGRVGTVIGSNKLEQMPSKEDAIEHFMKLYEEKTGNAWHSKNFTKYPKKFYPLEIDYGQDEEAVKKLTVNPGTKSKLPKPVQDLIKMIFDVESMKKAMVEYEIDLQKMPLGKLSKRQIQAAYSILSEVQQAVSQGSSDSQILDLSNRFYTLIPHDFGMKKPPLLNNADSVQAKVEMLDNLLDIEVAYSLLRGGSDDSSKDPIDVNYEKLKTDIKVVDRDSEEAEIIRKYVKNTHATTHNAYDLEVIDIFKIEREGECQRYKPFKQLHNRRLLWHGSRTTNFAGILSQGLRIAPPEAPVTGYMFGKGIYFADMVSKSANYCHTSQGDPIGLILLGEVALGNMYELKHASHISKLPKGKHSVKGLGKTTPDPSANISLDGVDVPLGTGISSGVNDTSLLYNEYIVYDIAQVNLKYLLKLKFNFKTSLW

As for `Cn1nc(-c2ccccc2)c2c1NC(=O)C1CCCCC21` (configuration not stated), the IC50 – broadly, the concentration that inhibits the measured activity by half – in series [1] turned out to be 7.3 nM. Moreover, the LD40 in the series on HCT-116 stood at 7.5 µM. Moreover, in the series with PARP1, the selectivity ratio was determined as 19.7.
With `Cc1nn(C)c2[nH]c3c(c(=O)c12)CCCC3`, in series [1], the IC50 was above 10000 nM.
For the compound `Cn1nc(-c2ccccc2)c2c3c(c(=O)[nH]c21)CSC3`, in series [1], the IC50 amounted to 110 nM. This compound registered an LD40 with HCT-116 of 21.2 µM. In addition, in the series on PARP1, the selectivity ratio was 1.4.
`Cc1nn(-c2ccccc2)c2[nH]c(=O)c3c(c12)CSC3` had an IC50 in series [1] above 10000 nM.
Still for that read-out and setting: under `Cn1nc(-c2cccs2)c2c3c(c(=O)[nH]c21)CSC3` stands 428 nM; under `Cc1nn(-c2ccccc2)c2[nH]c(=O)c3c(c12)CCC3`, above 10000 nM; under `Cc1nn(C)c2nc3c(c(O)c12)CSC3`, above 10000 nM.
Take `Cn1nc(-c2cccs2)c2c3c(c(=O)[nH]c21)CCC3`: the half-maximal inhibitory concentration (IC50) in series [1] amounted to 149 nM. For the same compound, in the series on HCT-116, the LD40 is 11.2 µM. Moreover, the selectivity ratio in the series with PARP1 amounted to 3.6.
Compound `O=c1[nH]c2c(c(-c3ccccc3)nn2-c2ccccc2)c2c1CCCC2` showed an IC50 in series [1] above 10000 nM.
On to `Cn1nc(-c2cccs2)c2c3c(c(=O)[nH]c21)CCCC3`, for which half-maximal inhibition in series [1] (IC50) was put at 6.9 nM. In the series on HCT-116, this compound yielded an LD40 above 12.5 µM. The selectivity ratio with PARP1 is above 32.9.
`COc1ccc(-c2nc3c(C(N)=O)cccc3[nH]2)cc1`: the concentration for half-maximal inhibition (IC50) in series [1] was 60 nM.
The compound `Cn1nc(-c2ccccc2)c2c3c(c(=O)[nH]c21)CCC3` gave an IC50 in series [1] of 106 nM. In the series with HCT-116, this compound had an LD40 of 42.5 µM. The selectivity ratio in the series with PARP1 came to 1.6.
For `Cc1nn(C)c2[nH]c(=O)c3c(c12)CCC3`, in that order: 29.8 nM, 27.2 µM and 1.4.
In series [1], `Cc1nn(C)c2[nH]c(=O)c3c(c12)CSC3` displayed an IC50 of 92.7 nM. In the series with HCT-116, this compound returned an LD40 above 50 µM. Besides, in the series on PARP1, the selectivity ratio is above 1.8.
For the compound `Cc1nn(-c2ccccc2)c2[nH]c(=O)c3c(c12)CCCC3`, half-maximal inhibition in series [1] (IC50) required 9720 nM.
On the same count and under the same terms, under `Cc1nn(C(C)(C)C)c2[nH]c(=O)c3c(c12)CSC3` stands 1840 nM.
Take `Cc1nn(C)c2[nH]c(=O)c3c(c12)CCCC3`: the IC50 in series [1] turned out to be 2.2 nM. The compound also had an LD40 with HCT-116 above 12.5 µM. Moreover, the selectivity ratio with PARP1 was above 6.6.
On to `O=c1[nH]c2c(c(-c3ccccc3)nn2-c2ccccc2)c2c1CCC2`, for which, in series [1], the 50% inhibitory concentration (IC50) was above 10000 nM.
Compound `Cc1cccc2c1CCNC2=O` came in with an IC50 in series [1] of 160 nM.
The same measure, in the same setting: under `Cc1nn(C(C)(C)C)c2[nH]c(=O)c3c(c12)CCC3` stands 519 nM; under `Cc1nn(C)c2[nH]c3c(c(=O)c12)CCC3`, 7000 nM.
